# Reference: patent US8192962B2, “Processes for detecting toxic substances” (Daikin Industries, Ltd., priority 2001, dated 2012)
# System: Detoxification protein genes
# Experiment: DNA chip mRNA expression in yeast, detoxification protein genes (Table 8)
# Format: cell-based, Saccharomyces cerevisiae S288C
# Method in brief: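 Values are treated/untreated fluorescence ratios from a whole-genome yeast DNA chip hybridized over 12 hours at 65° C with Cy3- or Cy5-labelled cDNA from poly(A) mRNA. Log-phase S288C yeast in YPD at 25° C had received a single toxic chemical for two hours, dosed to slow growth without killing.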
smiles,measurement,setting,value
"CCCCCCCCCCCCc1ccc(S(=O)(=O)[O-])cc1.[Na+] [(17), sodium dodecylbenzosulfonate]",The level of expressed mRNA in the presence of chemical substance/The level of expressed mRNA in the absence of chemical substance,yeast gene YBL064C,1.2
same,The level of expressed mRNA in the presence of chemical substance/The level of expressed mRNA in the absence of chemical substance,yeast gene YBR008C,2.0
same,The level of expressed mRNA in the presence of chemical substance/The level of expressed mRNA in the absence of chemical substance,yeast gene YBR145W,1.7
same,The level of expressed mRNA in the presence of chemical substance/The level of expressed mRNA in the absence of chemical substance,yeast gene YBR244W,1.2
same,The level of expressed mRNA in the presence of chemical substance/The level of expressed mRNA in the absence of chemical substance,yeast gene YBR293W,1.0
same,The level of expressed mRNA in the presence of chemical substance/The level of expressed mRNA in the absence of chemical substance,yeast gene YCL035C,2.6
same,The level of expressed mRNA in the presence of chemical substance/The level of expressed mRNA in the absence of chemical substance,yeast gene YCL069W,1.0
same,The level of expressed mRNA in the presence of chemical substance/The level of expressed mRNA in the absence of chemical substance,yeast gene YCR083W,1.3
same,The level of expressed mRNA in the presence of chemical substance/The level of expressed mRNA in the absence of chemical substance,yeast gene YDL100C,1.2
same,The level of expressed mRNA in the presence of chemical substance/The level of expressed mRNA in the absence of chemical substance,yeast gene YDL168W,0.9
same,The level of expressed mRNA in the presence of chemical substance/The level of expressed mRNA in the absence of chemical substance,yeast gene YDR256C,1.0
same,The level of expressed mRNA in the presence of chemical substance/The level of expressed mRNA in the absence of chemical substance,yeast gene YDR453C,1.0
same,The level of expressed mRNA in the presence of chemical substance/The level of expressed mRNA in the absence of chemical substance,yeast gene YDR513W,1.3
same,The level of expressed mRNA in the presence of chemical substance/The level of expressed mRNA in the absence of chemical substance,yeast gene YDR538W,1.0
same,The level of expressed mRNA in the presence of chemical substance/The level of expressed mRNA in the absence of chemical substance,yeast gene YEL027W,1.0
same,The level of expressed mRNA in the presence of chemical substance/The level of expressed mRNA in the absence of chemical substance,yeast gene YEL065W,0.7
same,The level of expressed mRNA in the presence of chemical substance/The level of expressed mRNA in the absence of chemical substance,yeast gene YER185W,2.6
same,The level of expressed mRNA in the presence of chemical substance/The level of expressed mRNA in the absence of chemical substance,yeast gene YFL050C,0.8
same,The level of expressed mRNA in the presence of chemical substance/The level of expressed mRNA in the absence of chemical substance,yeast gene YGL013C,1.1
same,The level of expressed mRNA in the presence of chemical substance/The level of expressed mRNA in the absence of chemical substance,yeast gene YGL254W,0.8
same,The level of expressed mRNA in the presence of chemical substance/The level of expressed mRNA in the absence of chemical substance,yeast gene YGR088W,0.9
same,The level of expressed mRNA in the presence of chemical substance/The level of expressed mRNA in the absence of chemical substance,yeast gene YGR138C,0.7
same,The level of expressed mRNA in the presence of chemical substance/The level of expressed mRNA in the absence of chemical substance,yeast gene YGR197C,1.7
same,The level of expressed mRNA in the presence of chemical substance/The level of expressed mRNA in the absence of chemical substance,yeast gene YGR209C,1.3
same,The level of expressed mRNA in the presence of chemical substance/The level of expressed mRNA in the absence of chemical substance,yeast gene YGR224W,2.8
same,The level of expressed mRNA in the presence of chemical substance/The level of expressed mRNA in the absence of chemical substance,yeast gene YHL040C,1.4
same,The level of expressed mRNA in the presence of chemical substance/The level of expressed mRNA in the absence of chemical substance,yeast gene YHL047C,1.2
same,The level of expressed mRNA in the presence of chemical substance/The level of expressed mRNA in the absence of chemical substance,yeast gene YHR008C,0.9
same,The level of expressed mRNA in the presence of chemical substance/The level of expressed mRNA in the absence of chemical substance,yeast gene YHR048W,0.7
same,The level of expressed mRNA in the presence of chemical substance/The level of expressed mRNA in the absence of chemical substance,yeast gene YHR053C,1.0
same,The level of expressed mRNA in the presence of chemical substance/The level of expressed mRNA in the absence of chemical substance,yeast gene YHR055C,0.9
same,The level of expressed mRNA in the presence of chemical substance/The level of expressed mRNA in the absence of chemical substance,yeast gene YIR002C,1.1
same,The level of expressed mRNA in the presence of chemical substance/The level of expressed mRNA in the absence of chemical substance,yeast gene YIR038C,2.8
same,The level of expressed mRNA in the presence of chemical substance/The level of expressed mRNA in the absence of chemical substance,yeast gene YJL101C,0.9
same,The level of expressed mRNA in the presence of chemical substance/The level of expressed mRNA in the absence of chemical substance,yeast gene YJR104C,0.9
same,The level of expressed mRNA in the presence of chemical substance/The level of expressed mRNA in the absence of chemical substance,yeast gene YKL026C,1.6
same,The level of expressed mRNA in the presence of chemical substance/The level of expressed mRNA in the absence of chemical substance,yeast gene YKL064W,1.3
same,The level of expressed mRNA in the presence of chemical substance/The level of expressed mRNA in the absence of chemical substance,yeast gene YKR066C,0.9
same,The level of expressed mRNA in the presence of chemical substance/The level of expressed mRNA in the absence of chemical substance,yeast gene YKR105C,0.8
same,The level of expressed mRNA in the presence of chemical substance/The level of expressed mRNA in the absence of chemical substance,yeast gene YKR106W,0.9
same,The level of expressed mRNA in the presence of chemical substance/The level of expressed mRNA in the absence of chemical substance,yeast gene YLL028W,1.2
same,The level of expressed mRNA in the presence of chemical substance/The level of expressed mRNA in the absence of chemical substance,yeast gene YLL057C,3.0
same,The level of expressed mRNA in the presence of chemical substance/The level of expressed mRNA in the absence of chemical substance,yeast gene YLL060C,1.9
same,The level of expressed mRNA in the presence of chemical substance/The level of expressed mRNA in the absence of chemical substance,yeast gene YLR043C,1.5
same,The level of expressed mRNA in the presence of chemical substance/The level of expressed mRNA in the absence of chemical substance,yeast gene YLR046C,5.2
same,The level of expressed mRNA in the presence of chemical substance/The level of expressed mRNA in the absence of chemical substance,yeast gene YML028W,1.1
same,The level of expressed mRNA in the presence of chemical substance/The level of expressed mRNA in the absence of chemical substance,yeast gene YML116W,1.0
same,The level of expressed mRNA in the presence of chemical substance/The level of expressed mRNA in the absence of chemical substance,yeast gene YMR015C,1.0
same,The level of expressed mRNA in the presence of chemical substance/The level of expressed mRNA in the absence of chemical substance,yeast gene YMR038C,1.2
same,The level of expressed mRNA in the presence of chemical substance/The level of expressed mRNA in the absence of chemical substance,yeast gene YNL239W,1.1
same,The level of expressed mRNA in the presence of chemical substance/The level of expressed mRNA in the absence of chemical substance,yeast gene YNL241C,1.0
same,The level of expressed mRNA in the presence of chemical substance/The level of expressed mRNA in the absence of chemical substance,yeast gene YNL259C,2.6
same,The level of expressed mRNA in the presence of chemical substance/The level of expressed mRNA in the absence of chemical substance,yeast gene YOL158C,1.4
same,The level of expressed mRNA in the presence of chemical substance/The level of expressed mRNA in the absence of chemical substance,yeast gene YOR031W,1.7
same,The level of expressed mRNA in the presence of chemical substance/The level of expressed mRNA in the absence of chemical substance,yeast gene YOR153W,2.5
same,The level of expressed mRNA in the presence of chemical substance/The level of expressed mRNA in the absence of chemical substance,yeast gene YOR247W,1.2
same,The level of expressed mRNA in the presence of chemical substance/The level of expressed mRNA in the absence of chemical substance,yeast gene YOR251C,0.9
same,The level of expressed mRNA in the presence of chemical substance/The level of expressed mRNA in the absence of chemical substance,yeast gene YOR273C,3.2
same,The level of expressed mRNA in the presence of chemical substance/The level of expressed mRNA in the absence of chemical substance,yeast gene YPL163C,1.4
same,The level of expressed mRNA in the presence of chemical substance/The level of expressed mRNA in the absence of chemical substance,yeast gene YPR200C,1.1
